These are literature values, as cited in US12435057B2, “Triazole carboxylic acids as LPA antagonists” (BRISTOL-MYERS SQUIBB COMPANY, priority 2019, dated 2025).

One data set has as its system nerve-injured mice. The settings on record: pretreatment; cited from earlier work.
Data set [1] has as its system mouse epithelial renal cell line, MCT. The settings on record: co-treatment with LPA, MCT cells; cited from earlier work.
The next data set has as its system UUO mice. The settings on record: UUO mice treated with antagonist, compared with LPA1 (-/-) mice; cited from earlier work.
Data set [2] has as its system human foetal lung fibroblasts. The settings on record: cited from earlier work.
Data set [3] concerns pancreatic cancer cell lines. The settings on record: cited from earlier work.

`C[C@@H](N)[C@H]1CC[C@H](C(=O)Nc2ccncc2)CC1` [Example Y-27632]: the allodynia and hyperalgesia result in the data set with nerve-injured mice is “completely abolished”.

With `Cc1noc(-c2ccc(CSCCC(=O)O)cc2)c1NC(=O)OC(C)c1ccccc1Cl` (stereo not drawn) [Ki16425], the “LPA-induced expression of CTGF” value in data set [1] is reported as “almost completely suppressed”. The “development of renal fibrosis” value with UUO mice is “closely resembled the profile of LPA1 (−/−) mice”. For the same molecule, the “chemotaxis of human foetal lung fibroblasts induced by BAL from IPF patients” value in data set [2] was “blocked”. The “LPA-induced and ascites-induced invasion activity” value in data set [3] (highly peritoneal metastatic pancreatic cancer cell line) is given as “blocked”. In addition, the “in vitro migration in response to LPA and ascites from pancreatic cancer patients” value in data set [3] (pancreatic cancer cell lines) is reported as “effectively blocked”.
